From article PMC10600239, “Selective MCL-1 inhibitor ABBV-467 is efficacious in tumor models but is associated with cardiac troponin increases in patients” (Communications Medicine, 2023)
“And” between values parts separate entries of the source, which are not always exact repeats. Identical values can stand only once.

System: AMO-1 xenografts
Experiment: AMO-1 xenograft efficacy (tumor volume, body weight)
Type: in vivo, mouse
Parameters: key to Anti-tumor Activity vs. AMO-1 (DSMZ), Median / Anti-tumor Activity vs. AMO-1 (DSMZ), individual animal / Anti-tumor Activity vs. AMO-1 (DSMZ), Mean: tumor volume in mm^3 (length × width^2/2)
Method: All animal studies were conducted in accordance with the guidelines approved by the Institutional Animal Care and Use Committees of AbbVie. The research protocol was approved by In Vivo Pharmacology at AbbVie prior to study initiation but was not publicly registered or disclosed. Female C.B-17 SCID-beige mice (AMO-1, OPM-2, NCI-H929, and OCI-AML2 xenografts) and female NSG mice (MV4-11-Red.Fluc systemic) were purchased from Charles River Laboratories (Wilmington, MA). Animals were housed in a light cycle-controlled room with HEPA filtration at 22 °C. Animals had nesting and climbing cage topper as the primary environmental enrichment. Animals were inoculated subcutaneously in the right flank with 5 × 10^6 (AMO-1, OPM-2, NCI-H929, and OCI-AML2) or intravenous (IV) with 5 × 10^6 (MV4-11-Red.Fluc). The inoculation volume (0.2 mL) comprised a 50:50 mixture of cells in growth media and Matrigel (BD Biosciences) for subcutaneous injections and 100% phosphate-buffered saline for IV administration. All cell lines used in this publication were authenticated using IDEXX for STR profiling as well as their IMPACT and human IMPACT panels for pathogen screening. Electronic calipers were used to measure the length and width of each tumor 2 to 3 times per week. Tumor volume was estimated by applying the following equation: volume = length × width^2/2. All groups remained blinded during measurements and dosing; only veterinary staff were aware of group identity. When tumors reached approximately 200 mm^3, mice were randomized by match and distributed into treatment and control groups. All xenograft trials were conducted using 5 to 10 mice per group, and all mice were ear tagged and monitored individually throughout the studies. […] Tumor burden in the systemic MV4-11-Red.Fluc experiment was measured using an IVIS® spectrum from PerkinElmer by taking the total photon flux of the entire dorsal side of an individual mouse. […] A background control mouse that was tumor naive but received D-Luciferin was placed in the upper left corner of each image. The total flux from this animal was subtracted from the total flux of each animal present in the image.
For in vivo studies, maximal tumor growth inhibition (TGI) was calculated as the greatest treatment response using the following equation: Maximal TGI = (1 − mean tumor volume of the treated group/mean tumor volume of the vehicle control group) × 100. The tumor growth delay (TGD) percentage was determined as the percentage increase of the median time period for the treatment group to reach an arbitrary tumor volume of 1000 mm^3 relative to the vehicle control group. […] A power analysis was conducted using historical data to determine the number of animals required to yield significance of 0.05 at a 30% difference. […] Data from experiments in vivo were analyzed using the student’s t-test for TGI values and the Mann–Whitney U test for TGD using Excel and GraphPad Prism. Fisher’s exact test was used to probe significance of differences in response frequency.

[1] = 3.13 mg/kg IV QDx1, Day 13 (day before dosing begins)
[2] = 3.13 mg/kg QDx1 IV, Day 26, n=8

SMILES: Cc1c(Cl)c2c(Cl)c(C)c1-c1c(-c3ccc(F)cc3)sc3ncnc(c13)O[C@@H](C(=O)O)Cc1cc(ccc1OCc1ccnc(-c3ccc(OC[C@H]4COCCO4)cc3)n1)OC[C@@H](CN1CCN(C)CC1)O2 [Compound A-1747745.0]
- Starting Body Wt. (3.13 mg/kg IV QDx1, AMO-1 xenograft, SCID-beige mice, in g (unit assumed)): 21.625
- % Mortality (3.13 mg/kg IV QDx1, clinical observation): 100.00%
- Anti-tumor Activity vs. AMO-1 (DSMZ), Mean (3.13 mg/kg IV QDx1, day 13): 216.27
- Anti-tumor Activity vs. AMO-1 (DSMZ), Median (3.13 mg/kg IV QDx1, day 13): 216.30
- Anti-tumor Activity vs. AMO-1 (DSMZ), individual animal (3.13 mg/kg IV QDx1, day 13): 219 and 210 and 215 and 217 and 224 and 221 and 209 and 214
- Group Mean, Body Weight (3.13 mg/kg IV QDx1, day 14): 21.63 g
- Anti-tumor Activity vs. AMO-1 (DSMZ), Mean (3.13 mg/kg IV QDx1, day 16): 205.11
- Anti-tumor Activity vs. AMO-1 (DSMZ), Median (3.13 mg/kg IV QDx1, day 16): 207.59
- Anti-tumor Activity vs. AMO-1 (DSMZ), individual animal (3.13 mg/kg IV QDx1, day 16): 195 and 171 and 227 and 217 and 219 and 212 and 203 and 196
- Anti-tumor Activity vs. AMO-1 (DSMZ), Mean (3.13 mg/kg IV QDx1, day 19): 192.25
- Anti-tumor Activity vs. AMO-1 (DSMZ), Median (3.13 mg/kg IV QDx1, day 19): 202.67
- Anti-tumor Activity vs. AMO-1 (DSMZ), individual animal (3.13 mg/kg IV QDx1, day 19): 210 and 196 and 181 and 173 and 128 and 213 and 209 and 227
- Anti-tumor Activity vs. AMO-1 (DSMZ), Mean (3.13 mg/kg IV QDx1, day 21): 316.72
- Anti-tumor Activity vs. AMO-1 (DSMZ), Median (3.13 mg/kg IV QDx1, day 21): 336.29
- Anti-tumor Activity vs. AMO-1 (DSMZ), individual animal (3.13 mg/kg IV QDx1, day 21): 248 and 370 and 418 and 238 and 111 and 349 and 477 and 324
- Anti-tumor Activity vs. AMO-1 (DSMZ), Mean (3.13 mg/kg IV QDx1, day 23): 463.98
- Anti-tumor Activity vs. AMO-1 (DSMZ), Median (3.13 mg/kg IV QDx1, day 23): 467.27
- Anti-tumor Activity vs. AMO-1 (DSMZ), individual animal (3.13 mg/kg IV QDx1, day 23): 595 and 419 and 553 and 359 and 205 and 462 and 647 and 473
- Group Mean, Body Weight (3.13 mg/kg IV QDx1, day 23): 22.13 g
- Anti-tumor Activity vs. AMO-1 (DSMZ), Mean (3.13 mg/kg IV QDx1, day 26): 740.25
- Anti-tumor Activity vs. AMO-1 (DSMZ), Median (3.13 mg/kg IV QDx1, day 26): 757.36
- Anti-tumor Activity vs. AMO-1 (DSMZ), individual animal (3.13 mg/kg IV QDx1, day 26): 859 and 654 and 702 and 664 and 464 and 884 and 882 and 812
- Anti-tumor Activity vs. AMO-1 (DSMZ), Mean (3.13 mg/kg IV QDx1, day 28): 1102.63
- Anti-tumor Activity vs. AMO-1 (DSMZ), Median (3.13 mg/kg IV QDx1, day 28): 1024.93
- Anti-tumor Activity vs. AMO-1 (DSMZ), individual animal (3.13 mg/kg IV QDx1, day 28): 1383 and 753 and 968 and 881 and 872 and 1157 and 1725 and 1082
- Group Mean, Body Weight (3.13 mg/kg IV QDx1, day 28): 22.38 g
- Anti-tumor Activity vs. AMO-1 (DSMZ), Mean (3.13 mg/kg IV QDx1, day 30): 1440.23
- Anti-tumor Activity vs. AMO-1 (DSMZ), Median (3.13 mg/kg IV QDx1, day 30): 1430.49
- Anti-tumor Activity vs. AMO-1 (DSMZ), individual animal (3.13 mg/kg IV QDx1, day 30): 1812 and 984 and 1324 and 1150 and 1149 and 1537 and 1916 and 1649
- Anti-tumor Activity vs. AMO-1 (DSMZ), Mean (3.13 mg/kg IV QDx1, day 34): 2233.47
- Anti-tumor Activity vs. AMO-1 (DSMZ), Median (3.13 mg/kg IV QDx1, day 34): 2203.67
- Anti-tumor Activity vs. AMO-1 (DSMZ), individual animal (3.13 mg/kg IV QDx1, day 34): 2874 and 1660 and 1699 and 1719 and 1802 and 2605 and 2742 and 2768
- Xenograft AMO-1 (DSMZ) tumor volume Day 13, Mean [1]: 216.27 mm³
- Xenograft AMO-1 (DSMZ) tumor volume Day 13, Median [1]: 216.30 mm³
- % T/C (mean) (3.13 mg/kg IV QDx1, Day 13 (day before dosing begins), mean(T)/mean(C)): 100.07%
- % T/C (median) (3.13 mg/kg IV QDx1, Day 13 (day before dosing begins), median(T)/median(C)): 100.06%
- Xenograft AMO-1 (DSMZ) (mm³) Day 13, individual animals (3.13 mg/kg IV QDx1, SCID-beige female mice, Day 13 (randomization, day before dosing begins)): 219 mm³ and 210 mm³ and 215 mm³ and 217 mm³ and 224 mm³ and 221 mm³ and 209 mm³ and 214 mm³
- Xenograft AMO-1 (DSMZ) tumor volume Day 26, Mean [2]: 740.25 mm³
- Xenograft AMO-1 (DSMZ) tumor volume Day 26, Median [2]: 757.36 mm³
